{"source": "patent US10844044B2", "about": "(Vanderbilt University, priority 2018, dated 2020)", "key": {"WDR5": {"biological_target": "WDR5 (Homo sapiens (Human), UniProt P61964)", "assay": "TR-FRET binding assay (displacement of 10mer-Thr-FAM probe from WDR5)", "details": "read-out: Ki for Inhibition of WDR5 by TR-FRET assay"}, "[1]": {"test_system": "MV4:11 human cancer cell lines", "assay": "Anti-proliferative activity, CellTiter-Glo viability assay, 7 day protocol", "format": "cell-based", "details": "MV4:11 cells, 7 day incubation, read-out: GI50 on cellular proliferation of MV4:11 human cancer cell lines", "outline": "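Luminescent CellTiter-Glo readout after 7-day compound exposure of MV4:11 cells plated at 3600 cells/ml (final DMSO 0.1%). GI50 derived from three biological × three technical replicates, reported as mean ± S.E.M.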"}}, "data": [{"substance": "N—((S)-Cyclopropyl(4-fluoro-3-methylphenyl)methyl)-2-ethoxy-5-((3-fluoro-2-iminopyridin-1(2H)-yl)methyl)-3-(1-methyl-3-(trifluoromethyl)-1,3-dihydro-2λ2-pyrazol-4-yl)benzamide [Example 348]", "values": [{"measurement": "Ki", "setting": "WDR5", "value": "< 0.1", "unit": "nM"}, {"measurement": "GI50", "setting": "[1]", "value": "< 100", "unit": "nM"}]}]}
